Laboratory results from ChEMBL document CHEMBL5120867, “Hernandezine Regulates Proliferation and Autophagy-Induced Apoptosis in Melanoma Cells” (J Nat Prod, 2022).
Activity calls are given as the source filed them. The calls are words filed in the database; no cut-off is given here.

Experiments:
[1] = tested on: A-375; assay: Induction of autophagy in human A-375 cells assessed as increase in phosphorylated ACC at 7 uM incubated for 6 to 24 hrs by Western blotting analysis; format: functional, cell-based; conditions: time 6-24 hrs
[2] = tested on: B16; assay: Induction of apoptosis in mouse B16 cells assessed as nuclear membrane lysis at 5 to 7 uM incubated for 24 hrs by Hoechst 33258 staining based fluorescence microscopy; format: functional, cell-based; conditions: dose 5-7 µM
[3] = tested on: B16; assay: Induction of apoptosis in mouse B16 cells assessed as late apoptotic cells at 7 uM measured after 24 hrs by Annexin-V-FITC/PI-staining based flow cytometry (reference value: 4.4 %); format: functional
[4] = tested on: A-375; assay: Induction of apoptosis in human A-375 cells assessed as late apoptotic cells after 24 hrs by Annexin-V-FITC/PI-staining based flow cytometry (reference value: 5.7 %); format: functional
[5] = tested on: NCI-H1299; assay: Cytotoxicity against human NCI-H1299 cells assessed as reduction in cell viability by MTT assay; format: functional, cell-based
[6] = tested on: A-375; assay: Induction of apoptosis in human A-375 cells assessed as nuclear membrane lysis at 6 to 8 uM incubated for 24 hrs by Hoechst 33258 staining based fluorescence microscopy; format: functional, cell-based; conditions: dose 6-8 µM
[7] = tested on: B16; assay: Induction of cell cycle arrest in mouse B16 cells assessed as accumulation at G2/M phase at 6 uM incubated for 24 hrs by PI staining based flow cytometry analysis (reference value: 4.70 %); format: functional
[8] = tested on: B16; assay: Induction of cell cycle arrest in mouse B16 cells assessed as accumulation at G0/G1 phase at 6 uM incubated for 24 hrs by PI staining based flow cytometry analysis (reference value: 61.83 %); format: functional
[9] = tested on: A-375; assay: Induction of apoptosis in human A-375 cells assessed as late apoptotic cells at 8 uM after 24 hrs by Annexin-V-FITC/PI-staining based flow cytometry (reference value: 5.7 %); format: functional
[10] = tested on: A-375; assay: Induction of cell cycle arrest in human A-375 cells assessed as accumulation at S phase at 7 uM incubated for 24 hrs by PI staining based flow cytometry analysis (reference value: 28.83 %); format: functional
[11] = tested on: B16; assay: Inhibition of colony formation in mouse B16 cells assessed as reduction in number of colonies at 5 to 7 uM incubated for 24 hrs followed by replacement with fresh medium and measured after 14 days by crystal violet staining based analysis; format: functional, cell-based; conditions: dose 5-7 µM
[12] = tested on: B16; assay: Induction of cell cycle arrest in mouse B16 cells assessed as accumulation at G2/M phase incubated for 24 hrs by PI staining based flow cytometry analysis (reference value: 0.88 %); format: functional
[13] = tested on: A-375; assay: Induction of apoptosis in human A-375 cells assessed as early apoptotic cells after 24 hrs by Annexin-V-FITC/PI-staining based flow cytometry (reference value: 3.1 %); format: functional
[14] = tested on: A-375; assay: Upregulation of p21 accumulation in human A-375 cells at 6 to 8 uM measured after 12 to 24 hrs by western blot assay; format: functional, cell-based; conditions: dose 6-8 µM, time 12-24 hrs
[15] = tested on: A-375; assay: Induction of cell cycle arrest in human A-375 cells assessed as accumulation at G0/G1 phase at 8 uM incubated for 24 hrs by PI staining based flow cytometry analysis (reference value: 69.68 %); format: functional
[16] = tested on: B16; assay: Induction of apoptosis in mouse B16 cells assessed as early apoptotic cells at 5 uM measured after 24 hrs by Annexin-V-FITC/PI-staining based flow cytometry (reference value: 0.5 %); format: functional
[17] = tested on: A-375; assay: Induction of cell cycle arrest in human A-375 cells assessed as accumulation at G2/M phase at 7 uM incubated for 24 hrs by PI staining based flow cytometry analysis (reference value: 1.48 %); format: functional
[18] = tested on: B16; assay: Induction of apoptosis in mouse B16 cells assessed as late apoptotic cells at 5 uM measured after 24 hrs by Annexin-V-FITC/PI-staining based flow cytometry (reference value: 4.4 %); format: functional
[19] = tested on: A-375; assay: Inhibition of autophagy in human A-375 cells harbouring mCherry-EGFP-LC3 assessed as increase in number of autophagosomes at 7 uM incubated for 8 to 24 hrs by laser scanning confocal microscopic analysis; format: functional, cell-based; conditions: time 8-24 hrs, TDE = time-dependent effect
[20] = tested on: B16; assay: Induction of apoptosis in mouse B16 cells assessed as early apoptotic cells at 7 uM measured after 24 hrs by Annexin-V-FITC/PI-staining based flow cytometry (reference value: 0.5 %); format: functional
[21] = tested on: A-375; assay: Induction of autophagy in human A-375 cells assessed as increase in LC3-II expression at 7 uM incubated for 6 to 24 hrs by […]; format: functional, cell-based; conditions: time 6-24 hrs
[22] = tested on: A-375; assay: Inhibition of colony formation in human A-375 cells assessed as reduction in volume of colonies at 6 to 8 uM incubated for 24 hrs followed by replacement with fresh medium and measured after 14 days by crystal violet staining based analysis; format: functional, cell-based; conditions: dose 6-8 µM
[23] = tested on: HepG2; assay: Cytotoxicity against human HepG2 cells assessed as reduction in cell viability by MTT assay; format: functional, cell-based
[24] = tested on: A-375; assay: Induction of cell cycle arrest in human A-375 cells assessed as accumulation at G0/G1 phase incubated for 24 hrs by PI staining based flow cytometry analysis (reference value: 56.69 %); format: functional
[25] = tested on: A549; assay: Cytotoxicity against human A549 cells assessed as reduction in cell viability by MTT assay; format: functional, cell-based
[26] = tested on: A-375; assay: Induction of apoptosis in human A-375 cells assessed as […] of Bax/Bcl-2 protein level at 6 to 8 uM incubated for 24 hrs by Western blot analysis; format: functional, cell-based; conditions: dose 6-8 µM
[27] = tested on: A-375; assay: Cytotoxicity against human A-375 cells assessed as decrease in number of adherent cells at 6 to 8 uM incubated for 24 hrs by […] phase contrast microscope analysis; format: functional, cell-based; conditions: dose 6-8 µM
[28] = tested on: A-375; assay: Downregulation of Cyclin D1 protein expression in human A-375 cells at 6 to 8 uM measured after 12 to 24 hrs by western blot assay; format: functional, cell-based; conditions: dose 6-8 µM, time 12-24 hrs
[29] = tested on: A-375; assay: Upregulation of p53 accumulation in human A-375 cells at 6 to 8 uM measured after 12 to 24 hrs by western blot assay; format: functional, cell-based; conditions: dose 6-8 µM, time 12-24 hrs
[30] = tested on: B16; assay: Induction of apoptosis in mouse B16 cells assessed as early apoptotic cells at 6 uM measured after 24 hrs by Annexin-V-FITC/PI-staining based flow cytometry (reference value: 0.5 %); format: functional
[31] = tested on: B16; assay: Induction of cell cycle arrest in mouse B16 cells assessed as accumulation at S phase at 6 uM incubated for 24 hrs by PI staining based flow cytometry analysis (reference value: 33.46 %); format: functional
[32] = target: Signal transducer and activator of transcription 3 (Homo sapiens) (UniProt P40763); assay: Inhibition of STAT3 phosphorylation in human A-375 cells assessed as decrease in phosphorylated STAT3 level at 6 to 8 uM measured after 12 to 24 hrs by Western blot analysis; format: cell-based; conditions: dose 6-8 µM, time 12-24 hrs
Signal transducer and activator of transcription 3 (Homo sapiens), sequence (P40763 whole entry): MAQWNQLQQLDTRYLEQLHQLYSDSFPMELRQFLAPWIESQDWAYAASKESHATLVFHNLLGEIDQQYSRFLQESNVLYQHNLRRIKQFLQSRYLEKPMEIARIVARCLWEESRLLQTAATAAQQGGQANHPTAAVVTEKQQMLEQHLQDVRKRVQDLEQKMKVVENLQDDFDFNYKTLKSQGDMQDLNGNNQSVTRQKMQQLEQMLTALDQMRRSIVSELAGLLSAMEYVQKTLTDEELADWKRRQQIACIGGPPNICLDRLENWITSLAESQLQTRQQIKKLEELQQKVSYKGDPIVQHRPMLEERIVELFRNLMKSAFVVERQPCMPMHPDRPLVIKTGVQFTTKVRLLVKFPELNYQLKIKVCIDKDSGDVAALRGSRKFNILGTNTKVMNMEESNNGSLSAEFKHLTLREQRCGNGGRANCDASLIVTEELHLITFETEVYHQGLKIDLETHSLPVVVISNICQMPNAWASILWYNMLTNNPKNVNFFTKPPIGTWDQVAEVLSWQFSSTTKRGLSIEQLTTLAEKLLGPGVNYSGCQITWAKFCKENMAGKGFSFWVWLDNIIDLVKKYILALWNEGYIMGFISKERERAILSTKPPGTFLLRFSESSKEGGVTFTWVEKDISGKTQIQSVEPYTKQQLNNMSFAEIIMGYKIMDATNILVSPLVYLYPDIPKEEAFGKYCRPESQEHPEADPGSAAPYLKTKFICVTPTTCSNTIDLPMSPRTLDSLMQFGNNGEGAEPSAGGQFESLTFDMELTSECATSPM

[33] = tested on: B16; assay: Cytotoxicity against mouse B16 cells assessed as reduction in cell viability incubated for 24 hrs by MTT assay; format: functional, cell-based; conditions: B16, 24 h
[34] = tested on: B16; assay: Induction of cell cycle arrest in mouse B16 cells assessed as accumulation at G2/M phase at 7 uM incubated for 24 hrs by PI staining based flow cytometry analysis (reference value: 4.70 %); format: functional
[35] = tested on: B16; assay: Cytotoxicity against mouse B16 cells assessed as change in cell morphology with loss of intercellular contacts at 5 to 7 uM incubated for 24 hrs by phase contrast microscope analysis; format: functional, cell-based; conditions: dose 5-7 µM
[36] = tested on: Hep 3B2; assay: Cytotoxicity against human Hep3B cells assessed as reduction in cell viability by MTT assay; format: functional, cell-based

inhibition [32]: Active
SMILES: COc1ccc2cc1Oc1ccc(cc1)C[C@H]1c3cc(c(OC)cc3CCN1C)Oc1c(OC)c(OC)c(OC)c3c1[C@H](C2)N(C)CC3 [HERNANDEZINE]
Activity [1]: Active
Activity [2]: Active
Activity [3]: 25.8%
Activity [4]: 48.1%
IC50 [5]: 6.74 µM
Activity [6]: Active
Activity [7]: 3.27%
Activity [8]: 72.89%
Activity [9]: 53.4%
Activity [10]: 22.36%
inhibition [11]: Active
Activity [12]: 8.78%
Activity [13]: 19.6%
Activity [14]: Active
Activity [15]: 79.56%
Activity [16]: 4.6%
Activity [17]: 6.77%
Activity [18]: 17.8%
inhibition [19]: Tde
Activity [20]: 16.4%
Activity [21]: Active
inhibition [22]: Active
IC50 [23]: 7.42 µM
Activity [24]: 63.87%
IC50 [25]: 7.59 µM
Activity [26]: Active
Activity [27]: Active
Activity [28]: Active
Activity [29]: Active
Activity [30]: 12.9%
Activity [31]: 23.84%
IC50 [33]: 5.9 µM
Activity [34]: 2.98%
Activity [35]: Active
IC50 [36]: 6.71 µM
